In patent publication US20130184251A1, “HETEROAROMATIC AND AROMATIC PIPERAZINYL AZETIDINYL AMIDES AS MONOACYLGLYCEROL LIPASE INHIBITORS” (Janssen Pharmaceutica, NV, priority 2009, published 2013):
Read-outs that look alike come from different tables or passages of the source.

Assays:
HeLa cells = assay: 2-AG accumulation assay using HeLa cells; type: cell-based; conditions: for Emax at 10 µM: Homo sapiens
Male Sprague Dawley rats [1] = assay: Chronic constriction injury (CCI)-induced model of neuropathic pain, acetone-induced hypersensitivity; type: in vivo; conditions: HCl salt, 30 mg/kg oral dosing in 20% HPbCD
Text: Male Sprague Dawley rats (225-450 g; n=5-8/treatment) were used to evaluate the ability of selected compounds of the Formula (I) to reverse CCI-induced cold hypersensitivity. Four loose ligatures of 4-0 chromic gut were surgically placed around the left sciatic nerve under inhalation anesthesia as described by Bennett et al (Bennett G J, Xie Y K. Pain 1988, 33(1): 87-107). Fourteen to 35 days following CCI surgery, subjects were placed in elevated observation chambers containing wire mesh floors, and five applications of acetone (0.05 mL/application separated by approximately 5 minutes) were spritzed onto the plantar surface of the paw using a multidose syringe. An abrupt withdrawal or lifting of the paw was considered a positive response. The number of positive responses was recorded for each rat over the five trials. Following baseline withdrawal determinations, compounds of formula (I) were administered in an appropriate vehicle, such as hydroxypropyl-β-cyclodextrin (HP β CD), methylcellulose, Methocel, 10% Solutol, or H2O, or the like, by the appropriate route, i.p. or p.o. The number of withdrawals were re-determined 1 to 4 h after compound administration. Results are presented as a percent inhibition of shakes, which was calculated for each subject as [1-(test compound withdrawals/pre-test withdrawals)]×100 and then averaged by treatment.

rats = assay: CFA-induced paw radiant heat hypersensitivity; type: in vivo, rat; conditions: HCl salt in 20% HPβCD, treatment time 30 min
Experimental: Each rat was placed in a test chamber on a thermally controlled glass surface and allowed to acclimate for approximately 10 min. A radiant thermal stimulus (beam of light) was then focused through the glass onto the plantar surface of the hind paw. The thermal stimulus was automatically shut off by a photoelectric relay when the paw was moved or when the cut-off time was reached (20 sec). An initial (baseline) response latency to the thermal stimulus was recorded for each animal prior to the injection of CFA. 24 h following intraplantar CFA injection, the response latency to the thermal stimulus was then re-evaluated and compared to the animal's baseline response time. […] Immediately following the post-CFA latency assessment, test compound or vehicle (usually solutol, hydroxypropyl methylcellulose, hydroxypropyl beta-cyclodextrin or PEG-400) was administered i.p. or p.o. to rats. Post-compound treatment withdrawal latencies were assessed at fixed time intervals, typically 30, 60 and 120 minutes. The percent reversal of hypersensitivity is calculated according to the following formula: % reversal=(post dose latency-predoselatency)/(baseline (pre CFA) latency-predose latency)×100.
Compound #12 (as its corresponding HCl salt) was administered in a solution of 20% HPβCD, at a dose of 30 mg/kg, i.p. and a treatment time of 30 min.

Male Sprague Dawley rats [2] = assay: Visceral hyperalgesia model (colorectal distension, zymosan colitis); type: in vivo; conditions: 30 mg/kg, s.c.; 20 min after dosing; vehicle-treated rats 239.6±28.9% of control
Experimental: This protocol uses barostat-controlled, isobaric colorectal distensions (CRD) in rats to evaluate the potency and efficacy of test compounds in treating visceral hyperalgesia. Male Sprague Dawley rats, weighing 275-350 g, (Charles River Labs) were housed 2-4/cage in a temperature and humidity controlled room with a 12 h/12 h light/dark cycle and ad libitum access to food and water. One day after release from quarantine, rats were acclimated to progressively longer (30 min and, 4 h later, 45 min) periods of simple restraint in plexiglass devices (G-3, rat ECU; Braintree Scientific; Braintree Mass.). The rats were returned to their home cage overnight. […] The balloon pressure, which represents intracolonic pressure, was continuously recorded. […]
The following morning, colitis was induced by the intracolonic instillation of a 1.5-mL bolus of 2.5% (w/v) zymosan A (from Saccharomyces cerevisiae; Sigma Chemical Co., St. Louis) in 30% ethanol under light 70% CO2: 30% O2 anesthesia. […] The identical CRD stimuli were applied, and manometric VMRs were recorded and analyzed as described for the control phase of the experiment. […] CRD stimuli at 45 mmHg elicited peak responses in the control (pre-zymosan) condition; therefore, the responses of each rat were calculated as a percent of the manometric VMR at that pressure, recorded the day before induction of colitis; thus, each rat served as its own control. […]

[3] = HeLa cell homogenate, 2-AG accumulation relative to MAFP, compound @10 μM (second of two columns with the same head), read-out: Ex. 5 % MAFP @10 μM (second column)

SMILES: O=C(c1ccc(-c2ccccc2)cc1)N1CC(N2CCN(c3ncccn3)CC2)C1 [Compound #12, Biphenyl-4-yl-[3-(4-pyrimidin-2-yl-piperazin-1-yl)-azetidin-1-yl]-methanone]
- Emax at 10 µM (HeLa cells; [3]): 108%
- Emax at 10 µM (HeLa cells; HeLa cell homogenate, 2-AG accumulation relative to MAFP, compound @10 μM as printed (first of two columns with the same head), read-out: Ex. 5 % MAFP @10 μM (first column)): 63.1%
- Percent Inhibition (of shakes) (Male Sprague Dawley rats [1]; pretreatment time 1 hr): 57.1%
- Percent Inhibition (of shakes) (Male Sprague Dawley rats [1]; pretreatment time 2 hr): 74.3%
- Percent Inhibition (of shakes) (Male Sprague Dawley rats [1]; pretreatment time 3 hr): 80.0%
- Percent Inhibition (of shakes) (Male Sprague Dawley rats [1]; pretreatment time 4 hr): 48.6%
- reversal of hypersensitivity (rats; 30 mg/kg, i.p.): 90.3%
- ED50 (rats; Rattus norvegicus, ip, 0.5 h): 0.9 mg/kg
- hyperalgesic response (manometric VMR) to 45 mmHg CRD (Male Sprague Dawley rats [2]): 103.8±22.1 % of control

SMILES: O=C(c1ccccc1)c1ccc(C(=O)N2CC(N3CCN(c4ccccn4)CC3)C2)cc1 [compound 74, Phenyl(4-{[3-(4-pyridin-2-ylpiperazin-1-yl)azetidin-1-yl]carbonyl}phenyl)methanone]
- Emax at 10 µM (HeLa cells; [3]): 29.5%

SMILES: COc1cccc(-c2nc3cc(C(=O)N4CC(N5CCN(c6ccccn6)CC5)C4)ccc3o2)c1 [Compound #216]
- Ex. 5 % MAFP @10 μM (HeLa cells; 10 μM compound, 2-AG relative to MAFP, HeLa homogenate): 86.9 % MAFP

SMILES: O=C(c1ccc(Cc2ccccc2)cc1)N1CC(N2CCN(c3ncccn3)CC2)C1 [compound 24, 2-(4-{1-[(4-Benzylphenyl)carbonyl]azetidin-3-yl}piperazin-1-yl)pyrimidine]
- Emax at 10 µM (HeLa cells; [3]): 81.9%

SMILES: CCCn1ccc2cc(C(=O)N3CC(N4CCN(c5ccccn5)CC4)C3)ccc21 [compound 31, 1-Propyl-5-{[3-(4-pyridin-2-ylpiperazin-1-yl)azetidin-1-yl]carbonyl}-1H-indole]
- Emax at 10 µM (HeLa cells; [3]): 69.5%

SMILES: Cc1c(C(=O)N2CC(N3CCN(c4ccccn4)CC3)C2)nn(-c2ccc(Cl)cc2Cl)c1-c1ccc(Cl)cc1 [compound 39, 1-(1-{[5-(4-Chlorophenyl)-1-(2,4-dichlorophenyl)-4-methyl-1H-pyrazol-3-yl]carbonyl}azetidin-3-yl)-4-pyridin-2-ylpiperazine]
- Emax at 10 µM (HeLa cells; HeLa, read-out: Ex. 5 % MAFP @10 μM): 87.6%

SMILES: O=C(Cc1ccc(-c2ccccc2)cc1)N1CC(N2CCN(c3ccccn3)CC2)C1 [compound 88, 1-[1-(Biphenyl-4-ylacetyl)azetidin-3-yl]-4-pyridin-2-ylpiperazine]
- Emax at 10 µM (HeLa cells; [3]): 2.8%

SMILES: CC1(C)CCC(C)(C)c2cc(CCC(=O)N3CC(N4CCN(c5ccccn5)CC4)C3)ccc21 [compound 29, 1-Pyridin-2-yl-4-{1-[3-(5,5,8,8-tetramethyl-5,6,7,8-tetrahydronaphth-2-yl)propanoyl]azetidin-3-yl}piperazine]
- Emax at 10 µM (HeLa cells; [3]): 76.5%

SMILES: CC(C)(C)OC(=O)N1CCC(c2ccc(C(=O)N3CC(N4CCN(c5ccccn5)CC4)C3)cc2)CC1 [compound 122, tert-Butyl 4-(4-{[3-(4-pyridin-2-ylpiperazin-1-yl)azetidin-1-yl]carbonyl}phenyl)piperidine-1-carboxylate]
- Emax at 10 µM (HeLa cells; [3]): 67.8%

SMILES: CN(c1ccccc1)c1ccc(C(=O)N2CC(N3CCN(c4ccccn4)CC3)C2)cc1 [compound 18, N-Methyl-N-phenyl-4-{[3-(4-pyridin-2-ylpiperazin-1-yl)azetidin-1-yl]carbonyl}aniline]
- Emax at 10 µM (HeLa cells; [3]): 66.2%

SMILES: N#Cc1cccnc1N1CCN(C2CN(C(=O)c3ccc(C4CCCCC4)cc3)C2)CC1 [Compound #21, 2-(4-{1-[(4-Cyclohexylphenyl)carbonyl]azetidin-3-yl}piperazin-1-yl)pyridine-3-carbonitrile]
- Emax at 10 µM (HeLa cells; [3]): 79.5%
